ChEMBL document CHEMBL5385879, “Various strategies for developing APOBEC3G protectors to circumvent human immunodeficiency virus type 1” (Eur J Med Chem, 2023)
Calls of active or inactive are those of the source. No cut-off for these calls is given here.

Key:
[1] = Cytotoxicity against HEK293T cells; type: toxicity, cell-based, HEK-293T; settings: human
[2] = test system: Human immunodeficiency virus 1; assay: Antiviral activity against HIV1 Bal infected in PBMCs assessed as reduction in viral replication measured after 7 days post infection; type: functional, organism-based; settings: Human immunodeficiency virus 1, Bal, PBMC, 168 h
[3] = Cytotoxicity against human PBMCs; type: toxicity, cell-based, PBMC; settings: read-out: TC50 (the source's name)
[4] = Inhibition of HIV1 GST-tagged Vif (1 to 94 residues) to biotinylated-A3G (110 to 148 residues) (unknown origin) protein-protein interaction by TR-FRET assay
[5] = test system: Human immunodeficiency virus 1; assay: Antiviral activity against HIV-1 Bal infected in PBMCs; type: functional, organism-based; settings: Human immunodeficiency virus 1, Bal, PBMC
[6] = test system: Human immunodeficiency virus 1; assay: Antiviral activity against HIV1 infected in CEM cells assessed as reduction in viral replication measured on day 7 postinfection by ELISA; type: functional, organism-based; settings: Human immunodeficiency virus 1, CCRF-CEM, 168 h
[7] = Inhibition of HIV1 Vif to human A3G protein-protein interaction
HEK293T = assay: Inhibition of HIV1 Vif expressed in HEK293T cells to cul5 (unknown origin) protein-protein interaction; type: cell-based
Hepatitis B virus [8] = assay: Antiviral activity against wild type HBV infected in HepG2.2.15 cells assessed as reduction in viral replication; type: functional, organism-based
Hepatitis B virus [9] = assay: Antiviral activity against HBV infected in ETV/3TC-resistant HepG2.A64 cells assessed as reduction in viral replication; type: functional, organism-based
[10] = molecular target: Virion infectivity factor (Human immunodeficiency virus type 1 group M subtype B (isolate NY5)(HIV-1), UniProt P12504); assay: Inhibition of HIV1 Vif; set-up: species or system Human immunodeficiency virus 1
Chain of Virion infectivity factor (P12504 1-150 limits assumed): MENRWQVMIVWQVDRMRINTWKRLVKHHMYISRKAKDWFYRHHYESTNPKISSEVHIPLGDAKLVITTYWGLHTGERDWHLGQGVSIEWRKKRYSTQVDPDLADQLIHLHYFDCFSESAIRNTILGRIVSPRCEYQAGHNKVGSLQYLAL
Chain of Virion infectivity factor (P12504 151-192 limits assumed): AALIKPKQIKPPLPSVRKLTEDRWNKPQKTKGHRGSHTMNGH

[11] = test system: Human immunodeficiency virus 1; assay: Antiviral activity against HIV1 infected in H9 cells assessed as reduction in viral replication measured after 4 days post infection; type: functional, organism-based; settings: Human immunodeficiency virus 1, H9, 96 h
[12] = test system: Human immunodeficiency virus 1; assay: Antiviral activity against HIV1 infected in C8166 cells assessed as reduction in viral replication measured after 3 days by ELISA; type: functional, organism-based; settings: Human immunodeficiency virus 1, C8166, 72 h
[13] = test system: Human immunodeficiency virus 2; assay: Antiviral activity against HIV2 infected in C8166 cells assessed as reduction in viral replication measured after 3 days by ELISA; type: functional, organism-based; settings: Human immunodeficiency virus 2, C8166, 72 h
[14] = test system: Human immunodeficiency virus 1; assay: Antiviral activity against HIV1 infected in PBMCs assessed as reduction in viral replication measured after 7 days by ELISA; type: functional, organism-based; settings: Human immunodeficiency virus 1, PBMC, 168 h
[15] = test system: Human immunodeficiency virus 2; assay: Antiviral activity against HIV2 infected in PBMCs assessed as reduction in viral replication measured after 7 days by ELISA; type: functional, organism-based; settings: Human immunodeficiency virus 2, PBMC, 168 h
[16] = test system: Human immunodeficiency virus 1; assay: Antiviral activity against HIV-1 NL4-3 infected in HEK293T cells cotransfected with VSVG and hA3G-HA assessed as reduction in viral replication preincubated for 36 hrs followed by SubT1 cells infection for 48 hrs by luciferase based assay; type: functional, organism-based; settings: Human immunodeficiency virus 1, NL4-3, HEK-293T
[17] = test system: Human immunodeficiency virus 1; assay: Antiviral activity against HIV-1 NL4-3 infected in HEK293T cells cotransfected with Vif and hA3G-HA assessed as fold increase in A3G-HA level at 10 uM measured after 36 hrs by Western blotting analysis; type: functional
[18] = test system: Human immunodeficiency virus 1; assay: Antiviral activity against HIV1 infected in HEK293T cells cotransfected with pNL4-3 plus A3G vector assessed as reduction in viral replication measured after 48 hrs post transfection by MAGI assay; type: functional, organism-based; settings: Human immunodeficiency virus 1, HEK-293T

SMILES: CCCCn1c(SCc2c(C)noc2C)nc2cc(S(N)(=O)=O)ccc21
- IC50 [1]: 30 µM

SMILES: COc1cc(-c2ccc(Nc3ccccc3C(=O)O)c(OC)c2)ccc1Nc1ccccc1C(=O)O
- IC50 [2]: 1.37 µM
- CC50 [3]: > 100 µM

SMILES: C/C(=C/C(=O)c1cccnc1)Nc1ccc(O)cc1
- IC50 [2]: 8.4 µM
- IC50 [4]: 2180 nM
- IC50 [5]: 4.2 µM
- CC50 [3]: > 100 µM

SMILES: CC(C)(C)OC(=O)NCCCC[C@@H](NC(=O)OCc1ccccc1)C(=O)Oc1ccc([N+](=O)[O-])cc1
- IC50 [6]: 8.16 µM

SMILES: COc1ccc(C(=O)Oc2cc(OC)c(OC)c(OC)c2)cc1NC(=O)C(C)Br (stereo not drawn)
- IC50 [7]: 17 nM

SMILES: c1ccc(CN(CCN(Cc2ccccn2)Cc2ccccn2)Cc2ccccn2)nc1
- inhibition (HEK293T): Active

SMILES: CNc1cc(C(=O)Nc2ccc(Cl)cc2)ccc1OC
- IC50 (Hepatitis B virus [8]): 1990 nM
- IC50 (Hepatitis B virus [9]): 3.3 µM

SMILES: COc1ccccc1NC(=O)c1ccccc1Sc1ccc([N+](=O)[O-])cc1
- IC50 [10]: 6 µM

SMILES: N#C/C(=C\c1ccc(Br)nc1)c1nc2ccccc2[nH]1
- IC50 [11]: 1010 nM

SMILES: CCCCCCCCCCCCCCCCCCCCCCC(=O)O[C@@H]1[C@@H](C)[C@@]2(O)[C@@H](C=C(COC(C)=O)C[C@]3(O)C(=O)C(C)=C[C@@H]23)[C@@H]2C(C)(C)[C@]12O
- IC50 [12]: 100 nM
- IC50 [13]: 100 nM
- IC50 [14]: 100 nM
- IC50 [15]: 100 nM

SMILES: Fc1ccc(OCC(Cn2ccnc2)c2ccc(Cl)cc2Cl)cc1 (stereo not drawn)
- IC50 [16]: 8.63 µM
- fold change (FC) [17]: 1.7

SMILES: Cc1noc(C)c1CSc1nc2ccccc2n1-c1ccccc1
- IC50 [1]: 30 µM

SMILES: CCOC(=O)c1cc(C(=O)c2ccc3ccccc3c2)n2ccc(C(=O)c3ccccc3)cc12
- IC50 [18]: 25 µM

SMILES: COc1ccc(C(=O)Nc2cc(OC)c(OC)c(OC)c2)cc1NC(=O)C(C)Br (stereo not drawn)
- IC50 [7]: 17 nM
